The source made the active and inactive calls. The rule behind the calls is not given here. Square brackets hold non-standard residues; d marks the D form. Peptide text beside a SMILES is read from it. * marks the point of attachment. X1 = CC(=O)N[C@H]1[C@H](O[C@H]2[C@@H](O)[C@H](O)[C@@H](CO)O[C@@H]2*)O[C@H](CO)[C@@H](O[C@@H]2O[C@H](CO)[C@H](O)[C@H](O[C@]3(C(=O)O)C[C@H](O)[C@@H](NC(C)=O)[C@H]([C@H](O)[C@H](O)CO)O3)[C@H]2O)[C@@H]1O; X2 = CC(=O)N[C@H]1[C@H](O[C@H]2[C@@H](O)[C@H](O)[C@@H](CO)O[C@@H]2*)O[C@H](CO)[C@@H](O[C@@H]2O[C@H](CO)[C@H](O)[C@H](O)[C@H]2O)[C@@H]1O; GlcNAc(β1-2)αMan = CC(=O)N[C@H]1[C@H](O[C@H]2[C@@H](O)[C@H](O)[C@@H](CO)O[C@@H]2*)O[C@H](CO)[C@@H](O)[C@@H]1O; Orn(CH(NH2)2) = NC(N)NCCC[C@H](N)C(=O)O; Hexanoyl(5-oxo) = CC(=O)CCCC(=O)*
Key:
Maackia amurensis = assay: Binding affinity to biotin-labeled Maackia amurensis agglutinin in pH 7.4 Tris buffer by fluorescence microarray method
Datura stramonium = assay: Binding affinity to biotin-labeled Datura stramonium agglutinin in pH 7.4 Tris buffer by fluorescence microarray method
Arachis hypogaea = assay: Binding affinity to biotin-labeled Arachis hypogaea agglutinin in pH 7.4 Tris buffer by fluorescence microarray method
[1] = tested on: Sambucus racemosa subsp. sieboldiana; assay: Binding affinity to biotin-labeled Sambucus sieboldiana agglutinin in pH 7.4 Tris buffer by fluorescence microarray method
Erythrina crista-galli = assay: Binding affinity to biotin-labeled Erythrina crista-galli agglutinin in pH 7.4 Tris buffer by fluorescence microarray method
Triticum aestivum = assay: Binding affinity to biotin-labeled Wheat germ agglutinin in pH 7.4 Tris buffer by fluorescence microarray method
Canavalia ensiformis = assay: Binding affinity to biotin-labeled Canavalia ensiformis agglutinin in pH 7.4 Tris buffer by fluorescence microarray method
[2] = molecular target: Laminin subunit alpha-1 (Homo sapiens) (UniProt P25391); assay: Binding affinity to biotin-labeled human recombinant laminin-1 at 10 ug/ml in pH 7.4 Tris buffer by fluorescence microarray method
Chain of Laminin subunit alpha-1 (Homo sapiens) (P25391 whole entry): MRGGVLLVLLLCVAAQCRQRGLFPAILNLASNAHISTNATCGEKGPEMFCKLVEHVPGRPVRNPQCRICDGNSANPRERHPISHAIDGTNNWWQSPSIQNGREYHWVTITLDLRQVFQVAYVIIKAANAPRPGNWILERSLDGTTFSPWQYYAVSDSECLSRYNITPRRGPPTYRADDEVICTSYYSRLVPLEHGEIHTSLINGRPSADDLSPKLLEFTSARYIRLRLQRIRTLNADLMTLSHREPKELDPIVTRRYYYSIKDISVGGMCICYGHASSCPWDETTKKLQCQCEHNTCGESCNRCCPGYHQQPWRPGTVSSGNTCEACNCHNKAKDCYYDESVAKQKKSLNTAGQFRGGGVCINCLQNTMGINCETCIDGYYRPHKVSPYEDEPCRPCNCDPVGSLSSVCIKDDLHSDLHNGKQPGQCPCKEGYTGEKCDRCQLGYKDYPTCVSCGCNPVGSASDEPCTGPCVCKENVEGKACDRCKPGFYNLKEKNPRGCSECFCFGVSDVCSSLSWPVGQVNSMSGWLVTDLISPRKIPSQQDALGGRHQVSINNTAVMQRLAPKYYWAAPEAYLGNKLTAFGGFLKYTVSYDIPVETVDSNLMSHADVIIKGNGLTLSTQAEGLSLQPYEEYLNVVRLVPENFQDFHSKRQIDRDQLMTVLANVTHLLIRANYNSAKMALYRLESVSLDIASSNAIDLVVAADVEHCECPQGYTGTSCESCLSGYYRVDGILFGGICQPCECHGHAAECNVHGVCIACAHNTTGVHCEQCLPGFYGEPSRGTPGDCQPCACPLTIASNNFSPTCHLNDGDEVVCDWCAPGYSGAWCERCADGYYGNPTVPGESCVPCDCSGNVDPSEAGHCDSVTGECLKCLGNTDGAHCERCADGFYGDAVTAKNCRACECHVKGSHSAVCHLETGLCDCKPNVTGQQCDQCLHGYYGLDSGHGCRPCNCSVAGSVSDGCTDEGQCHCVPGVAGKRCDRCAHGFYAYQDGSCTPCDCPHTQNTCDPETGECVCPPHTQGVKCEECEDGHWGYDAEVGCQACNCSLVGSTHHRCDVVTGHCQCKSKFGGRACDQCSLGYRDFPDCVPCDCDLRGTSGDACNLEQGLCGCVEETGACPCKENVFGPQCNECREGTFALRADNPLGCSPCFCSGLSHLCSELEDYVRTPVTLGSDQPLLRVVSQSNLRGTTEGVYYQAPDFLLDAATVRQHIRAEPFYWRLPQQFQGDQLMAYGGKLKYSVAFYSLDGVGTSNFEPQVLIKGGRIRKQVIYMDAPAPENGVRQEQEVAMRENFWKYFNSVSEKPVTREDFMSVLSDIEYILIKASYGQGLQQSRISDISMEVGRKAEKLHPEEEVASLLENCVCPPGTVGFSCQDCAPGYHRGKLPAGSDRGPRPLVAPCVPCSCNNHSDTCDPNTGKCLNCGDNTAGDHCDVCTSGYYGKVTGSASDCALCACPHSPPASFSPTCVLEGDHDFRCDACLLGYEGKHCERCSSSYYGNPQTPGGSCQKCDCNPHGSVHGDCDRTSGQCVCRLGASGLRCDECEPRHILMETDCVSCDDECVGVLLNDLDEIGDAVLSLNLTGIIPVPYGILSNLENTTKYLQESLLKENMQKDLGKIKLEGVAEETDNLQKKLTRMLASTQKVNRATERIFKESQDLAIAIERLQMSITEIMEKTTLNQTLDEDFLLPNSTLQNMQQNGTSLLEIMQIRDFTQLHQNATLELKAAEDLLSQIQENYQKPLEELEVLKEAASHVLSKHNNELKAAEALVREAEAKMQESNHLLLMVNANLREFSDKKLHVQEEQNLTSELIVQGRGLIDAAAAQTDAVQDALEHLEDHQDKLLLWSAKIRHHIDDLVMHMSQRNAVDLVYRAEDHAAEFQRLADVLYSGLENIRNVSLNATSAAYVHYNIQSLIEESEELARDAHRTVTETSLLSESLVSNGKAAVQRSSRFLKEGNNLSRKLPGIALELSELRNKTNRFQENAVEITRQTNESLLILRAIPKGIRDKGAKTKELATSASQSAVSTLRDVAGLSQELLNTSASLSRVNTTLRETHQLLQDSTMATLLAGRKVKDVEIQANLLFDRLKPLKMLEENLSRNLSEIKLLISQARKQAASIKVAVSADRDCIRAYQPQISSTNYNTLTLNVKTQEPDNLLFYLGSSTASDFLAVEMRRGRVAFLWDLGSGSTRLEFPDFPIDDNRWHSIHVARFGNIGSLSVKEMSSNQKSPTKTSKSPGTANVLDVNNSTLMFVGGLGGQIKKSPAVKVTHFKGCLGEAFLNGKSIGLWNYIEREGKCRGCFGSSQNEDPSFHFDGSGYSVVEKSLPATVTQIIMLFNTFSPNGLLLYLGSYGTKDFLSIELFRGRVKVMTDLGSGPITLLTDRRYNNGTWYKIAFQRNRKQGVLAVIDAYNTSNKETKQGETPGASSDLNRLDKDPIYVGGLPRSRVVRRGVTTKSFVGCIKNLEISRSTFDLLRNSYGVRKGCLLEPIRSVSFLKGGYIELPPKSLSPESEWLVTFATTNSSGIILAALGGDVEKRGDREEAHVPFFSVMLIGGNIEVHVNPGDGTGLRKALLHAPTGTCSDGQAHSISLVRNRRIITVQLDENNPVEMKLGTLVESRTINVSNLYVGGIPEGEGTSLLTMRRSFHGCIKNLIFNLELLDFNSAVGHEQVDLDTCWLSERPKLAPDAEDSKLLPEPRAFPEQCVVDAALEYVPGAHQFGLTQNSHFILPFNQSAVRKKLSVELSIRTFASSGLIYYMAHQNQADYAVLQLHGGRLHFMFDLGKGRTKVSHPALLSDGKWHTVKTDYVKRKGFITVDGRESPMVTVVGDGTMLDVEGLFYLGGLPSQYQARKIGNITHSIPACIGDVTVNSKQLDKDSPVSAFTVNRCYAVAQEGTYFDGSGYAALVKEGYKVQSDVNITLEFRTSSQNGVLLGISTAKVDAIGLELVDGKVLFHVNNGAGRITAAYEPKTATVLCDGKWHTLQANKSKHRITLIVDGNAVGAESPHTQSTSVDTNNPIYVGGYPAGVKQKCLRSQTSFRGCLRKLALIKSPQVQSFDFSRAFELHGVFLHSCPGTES

Homo sapiens [3] = species on record: Homo sapiens; assay: Binding affinity to biotin-labeled human recombinant laminin-2 at 10 ug/ml in pH 7.4 Tris buffer by fluorescence microarray method
[4] = molecular target: Lactotransferrin (Homo sapiens) (UniProt P02788); assay: Binding affinity to biotin-labeled lactoferrin (unknown origin) at 10 ug/ml in pH 7.4 Tris buffer by fluorescence microarray method
Chain of Lactotransferrin (Homo sapiens) (P02788 whole entry): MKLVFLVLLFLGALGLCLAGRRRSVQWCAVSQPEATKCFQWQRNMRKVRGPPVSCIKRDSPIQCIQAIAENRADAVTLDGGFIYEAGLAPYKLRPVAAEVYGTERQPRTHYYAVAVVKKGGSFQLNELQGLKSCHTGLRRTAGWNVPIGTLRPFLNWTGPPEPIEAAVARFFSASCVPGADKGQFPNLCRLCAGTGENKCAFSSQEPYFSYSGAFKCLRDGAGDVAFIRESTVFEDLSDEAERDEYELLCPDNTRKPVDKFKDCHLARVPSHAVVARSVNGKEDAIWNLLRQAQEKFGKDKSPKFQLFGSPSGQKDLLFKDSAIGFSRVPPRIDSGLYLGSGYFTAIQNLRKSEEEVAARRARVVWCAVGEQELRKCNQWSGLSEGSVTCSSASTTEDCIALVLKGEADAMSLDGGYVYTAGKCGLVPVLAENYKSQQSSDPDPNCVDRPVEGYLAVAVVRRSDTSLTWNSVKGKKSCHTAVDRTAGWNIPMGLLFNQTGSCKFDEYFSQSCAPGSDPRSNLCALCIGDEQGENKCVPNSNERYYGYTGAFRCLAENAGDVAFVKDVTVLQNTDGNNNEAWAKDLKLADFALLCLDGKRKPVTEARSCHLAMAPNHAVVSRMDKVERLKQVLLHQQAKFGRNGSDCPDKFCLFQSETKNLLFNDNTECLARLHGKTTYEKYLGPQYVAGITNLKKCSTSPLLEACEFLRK

[5] = molecular target: Laminin subunit alpha-1 (Homo sapiens) (UniProt P25391); assay: Binding affinity to biotin-labeled human recombinant laminin-1 at 10 ug/ml in pH 5.6 MES buffer by fluorescence microarray method
[6] = molecular target: Lactotransferrin (Homo sapiens) (UniProt P02788); assay: Binding affinity to biotin-labeled lactoferrin (unknown origin) at 10 ug/ml in pH 5.6 MES buffer by fluorescence microarray method
Homo sapiens [7] = species on record: Homo sapiens; assay: Binding affinity to biotin-labeled human recombinant laminin-2 at 10 ug/ml in 5.6 MES buffer by fluorescence microarray method
[8] = Binding affinity to biotin-labeled Agaricus bisporus agglutinin in pH 7.4 Tris buffer by fluorescence microarray method

Compound	Activity (Maackia amurensis)	Activity (Datura stramonium)	Activity (Arachis hypogaea)	Activity [1]	Activity (Erythrina crista-galli)	Activity (Triticum aestivum)	Activity (Canavalia ensiformis)	Activity [2]	Activity (Homo sapiens [3])	Activity [4]	Activity [5]	Activity [6]	Activity (Homo sapiens [7])	Activity [8]
CC[C@H](C)[C@H](NC(=O)[C@H](C)NC(=O)CNC(=O)[C@H](CCCNC(=N)N)NC(=O)[C@@H](NC(=O)CCCC(C)=O)[C@@H](C)O)C(=O)N[C@H](C(=O)N[C@@H](CCC(N)=O)C(=O)N[C@H](C(=O)N1CCC[C@H]1C(=O)N[C@H](C(=O)N[C@@H](CC(C)C)C(=O)NCC(=O)N1CCC[C@H]1C(=O)N[C@H](C(=O)N[C@@H](CCC(N)=O)C(=O)N1CCC[C@H]1C(=O)N[C@H](C(=O)N[C@@H](CCCNC(=N)N)C(=O)N[C@H](C(N)=O)C(C)C)[C@@H](C)O)[C@@H](C)CC)[C@@H](C)O[C@H]1O[C@H](CO)[C@@H](O)[C@H](O)[C@@H]1O[C@@H]1O[C@H](CO)[C@@H](O[C@@H]2O[C@H](CO)[C@H](O)[C@H](O[C@]3(C(=O)O)C[C@H](O)[C@@H](NC(C)=O)[C@H]([C@H](O)[C@H](O)CO)O3)[C@H]2O)[C@H](O)[C@H]1NC(C)=O)[C@@H](C)O)[C@@H](C)CC ({Hexanoyl(5-oxo)}-TRGAIIQTPT(X1)LGPIQPTRV-NH2)	inactive	inactive	Active	Active	Active	Active	Active	Active	inactive	inactive	Active	Active	Active	Active
CC[C@H](C)[C@H](NC(=O)[C@H](C)NC(=O)CNC(=O)[C@H](CCCNC(=N)N)NC(=O)[C@@H](NC(=O)CCCC(C)=O)[C@@H](C)O)C(=O)N[C@H](C(=O)N[C@@H](CCC(N)=O)C(=O)N[C@H](C(=O)N1CCC[C@H]1C(=O)N[C@H](C(=O)N[C@@H](CC(C)C)C(=O)NCC(=O)N1CCC[C@H]1C(=O)N[C@H](C(=O)N[C@@H](CCC(N)=O)C(=O)N1CCC[C@H]1C(=O)N[C@H](C(=O)N[C@@H](CCCNC(=N)N)C(=O)N[C@H](C(N)=O)C(C)C)[C@@H](C)O[C@H]1O[C@H](CO)[C@@H](O)[C@H](O)[C@@H]1O[C@@H]1O[C@H](CO)[C@@H](O)[C@H](O)[C@H]1NC(C)=O)[C@@H](C)CC)[C@@H](C)O[C@H]1O[C@H](CO)[C@@H](O)[C@H](O)[C@@H]1O[C@@H]1O[C@H](CO)[C@@H](O)[C@H](O)[C@H]1NC(C)=O)[C@@H](C)O)[C@@H](C)CC ({Hexanoyl(5-oxo)}-TRGAIIQTPT(GlcNAc(β1-2)αMan)LGPIQPT(GlcNAc(β1-2)αMan)RV-NH2)	inactive	inactive	Active	Active	Active	Active	Active	Active	inactive	inactive	Active	Active	Active	Active

Results, then the compound that gave them:

Activity (Maackia amurensis)	Activity (Datura stramonium)	Activity (Arachis hypogaea)	Activity [1]	Activity (Erythrina crista-galli)	Activity (Triticum aestivum)	Activity (Canavalia ensiformis)	Activity [2]	Activity (Homo sapiens [3])	Activity [4]	Activity [5]	Activity [6]	Activity (Homo sapiens [7])	Activity [8]	Compound
inactive	inactive	Active	Active	Active	Active	Active	Active	inactive	inactive	Active	Active	Active	Active	CC[C@H](C)[C@H](NC(=O)[C@H](C)NC(=O)CNC(=O)[C@H](CCCNC(=N)N)NC(=O)[C@@H](NC(=O)CCCC(C)=O)[C@@H](C)O)C(=O)N[C@H](C(=O)N[C@@H](CCC(N)=O)C(=O)N[C@H](C(=O)N1CCC[C@H]1C(=O)N[C@H](C(=O)N[C@@H](CC(C)C)C(=O)NCC(=O)N1CCC[C@H]1C(=O)N[C@H](C(=O)N[C@@H](CCC(N)=O)C(=O)N1CCC[C@H]1C(=O)N[C@H](C(=O)N[C@@H](CCCNC(=N)N)C(=O)N[C@H](C(N)=O)C(C)C)[C@@H](C)O)[C@@H](C)CC)[C@@H](C)O[C@H]1O[C@H](CO)[C@@H](O)[C@H](O)[C@@H]1O[C@@H]1O[C@H](CO)[C@@H](O)[C@H](O)[C@H]1NC(C)=O)[C@@H](C)O)[C@@H](C)CC ({Hexanoyl(5-oxo)}-TRGAIIQTPT(GlcNAc(β1-2)αMan)LGPIQPTRV-NH2)
inactive	inactive	Active	Active	Active	Active	Active	Active	inactive	inactive	Active	Active	Active	Active	CC[C@H](C)[C@H](NC(=O)[C@H](C)NC(=O)CNC(=O)[C@H](CCCNC(=N)N)NC(=O)[C@@H](NC(=O)CCCC(C)=O)[C@@H](C)O)C(=O)N[C@H](C(=O)N[C@@H](CCC(N)=O)C(=O)N[C@H](C(=O)N1CCC[C@H]1C(=O)N[C@H](C(=O)N[C@@H](CC(C)C)C(=O)NCC(=O)N1CCC[C@H]1C(=O)N[C@H](C(=O)N[C@@H](CCC(N)=O)C(=O)N1CCC[C@H]1C(=O)N[C@H](C(=O)N[C@@H](CCCNC(N)N)C(=O)N[C@H](C(N)=O)C(C)C)[C@@H](C)O[C@H]1O[C@H](CO)[C@@H](O)[C@H](O)[C@@H]1O[C@@H]1O[C@H](CO)[C@@H](O[C@@H]2O[C@H](CO)[C@H](O)[C@H](O)[C@H]2O)[C@H](O)[C@H]1NC(C)=O)[C@@H](C)CC)[C@@H](C)O)[C@@H](C)O)[C@@H](C)CC ({Hexanoyl(5-oxo)}-TRGAIIQTPTLGPIQPT(X2)[Orn(CH(NH2)2)]V-NH2)
inactive	inactive	Active	Active	Active	Active	Active	Active	inactive	inactive	Active	Active	Active	Active	CC[C@H](C)[C@H](NC(=O)[C@H](C)NC(=O)CNC(=O)[C@H](CCCNC(=N)N)NC(=O)[C@@H](NC(=O)CCCC(C)=O)[C@@H](C)O)C(=O)N[C@H](C(=O)N[C@@H](CCC(N)=O)C(=O)N[C@H](C(=O)N1CCC[C@H]1C(=O)N[C@H](C(=O)N[C@@H](CC(C)C)C(=O)NCC(=O)N1CCC[C@H]1C(=O)N[C@H](C(=O)N[C@@H](CCC(N)=O)C(=O)N1CCC[C@H]1C(=O)N[C@H](C(=O)N[C@@H](CCCNC(=N)N)C(=O)N[C@H](C(N)=O)C(C)C)[C@@H](C)O)[C@@H](C)CC)[C@@H](C)O)[C@@H](C)O[C@H]1O[C@H](CO)[C@@H](O)[C@H](O)[C@@H]1O[C@@H]1O[C@H](CO)[C@@H](O[C@@H]2O[C@H](CO)[C@H](O)[C@H](O)[C@H]2O)[C@H](O)[C@H]1NC(C)=O)[C@@H](C)CC ({Hexanoyl(5-oxo)}-TRGAIIQT(X2)PTLGPIQPTRV-NH2)
